30 molecules from patent US20250368627A1, “PYRAZOLESULFONAMIDES AS ANTITUMOR AGENTS” (Peloton Therapeutics, Inc., a fully owned subsidiary of …, priority 2019, published 2025) can be followed below.

Assay [1] addresses T1, DDB1DB/DCAF15 and RBM39 R1R2 complex (Homo sapiens, UniProt Q14498+Q66K64).
T1 construct: Amino acids 150 to 331 of RBM39 were cloned into pGEX4T3; GST (from vector pGEX4T3); TEV cleavage site (N); made in house; host or cells: DDB1DB/His-DCAF15: baculovirus/Sf9 co-expression; RBM39 R1R2: E. coli (pGEX4T3)
Put plainly: DCAF15 RBM39 Complex Formation Assay (FRET). It is filed as binding. Particulars: FRET ratio Em 665/Em 615, incubated overnight at 4° C. The method, boiled down:
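Ternary complex formation read by TR-FRET (Em 665/615, excitation 340 nm) after overnight incubation at 4° C of 20 nM baculovirus DDB1DB/His-DCAF15 and 50 nM E. coli RBM39 RRM1-RRM2 FLAG fragment with 14-point, 3-fold compound dilutions from 1 μM; EC50 from 4-parameter fit.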

In assay [2] the test system is HCT116 human colorectal carcinoma cells. Nature of the assay: CellTiter-Glo Luminescent Cell Viability Assay. It is filed as cell-based. The settings on record: HCT-116, 72 h, 3 days. On the procedure:
HCT116 human colorectal carcinoma cells were used in these experiments. HCT116 cells were obtained from ATCC. CellTiter-Glo® Luminescent Cell Viability Assay Reagent was obtained from Promega.
About 3,000 cells were seeded into 96-well plate with […] of media (DMEM supplemented with 10% FBS, 100 units penicillin, and […] streptomycin per mL) the day before the experiment. For compound treatment, the master plate was prepared as follows: 100× compound stocks were prepared in a 96-well plate by 1 to 3 serial dilutions of 0.5 mM DMSO stocks. Each master plate contained serial dilution of 8 compounds, including the control compound E7820. […] of 100× compound stock was added to each well of the assay plate to give final concentrations of […]. Each concentration was tested in triplicate. After 3 days, cell viability was determined using CellTiter-Glo Luminescent Cell Viability Assay Reagent following the manufacturer's recommended protocol. Briefly, […] of CellTiter-Glo reagent was added to each well of the assay plate and the contents were mixed for 3 minutes at 600 rpm on a shaker (Thermomixer R). The plate was immediately placed in a plate reader (Synergy 2) and the luminescence signal (0.5 second per well integration time) was determined. IC50 values were calculated using Dotmatics software.
(In general: ATP-based viability assays read luminescence as a measure of living cells.)

Structures are written as SMILES. A value given as a limit tells only on which side of the number the result lay.

T1 sequence (Q66K64 whole entry, the tested form may be a part): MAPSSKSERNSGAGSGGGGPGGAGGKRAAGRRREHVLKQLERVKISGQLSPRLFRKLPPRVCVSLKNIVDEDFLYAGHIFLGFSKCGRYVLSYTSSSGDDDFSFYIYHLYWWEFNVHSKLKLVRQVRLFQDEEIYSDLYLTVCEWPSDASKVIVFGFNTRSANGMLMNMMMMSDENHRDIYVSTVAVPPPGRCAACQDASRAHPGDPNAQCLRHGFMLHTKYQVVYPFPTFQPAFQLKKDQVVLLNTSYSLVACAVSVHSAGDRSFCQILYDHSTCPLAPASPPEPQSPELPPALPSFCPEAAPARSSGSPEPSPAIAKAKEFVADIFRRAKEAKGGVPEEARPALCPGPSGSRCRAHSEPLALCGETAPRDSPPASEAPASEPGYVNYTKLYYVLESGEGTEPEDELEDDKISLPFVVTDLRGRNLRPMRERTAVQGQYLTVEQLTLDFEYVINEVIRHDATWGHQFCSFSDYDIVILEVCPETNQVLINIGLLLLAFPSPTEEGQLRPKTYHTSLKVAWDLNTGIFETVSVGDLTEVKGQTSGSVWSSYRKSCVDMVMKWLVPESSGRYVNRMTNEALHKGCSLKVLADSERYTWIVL
T1 sequence (Q14498 150-331): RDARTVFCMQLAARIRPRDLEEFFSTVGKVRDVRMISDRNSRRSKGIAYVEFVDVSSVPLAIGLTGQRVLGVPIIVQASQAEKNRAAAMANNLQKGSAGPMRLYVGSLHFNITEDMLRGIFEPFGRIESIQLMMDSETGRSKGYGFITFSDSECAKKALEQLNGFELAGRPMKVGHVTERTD
T1 sequence (Q16531 with tags, fused parts or gaps DEL396-708 partner): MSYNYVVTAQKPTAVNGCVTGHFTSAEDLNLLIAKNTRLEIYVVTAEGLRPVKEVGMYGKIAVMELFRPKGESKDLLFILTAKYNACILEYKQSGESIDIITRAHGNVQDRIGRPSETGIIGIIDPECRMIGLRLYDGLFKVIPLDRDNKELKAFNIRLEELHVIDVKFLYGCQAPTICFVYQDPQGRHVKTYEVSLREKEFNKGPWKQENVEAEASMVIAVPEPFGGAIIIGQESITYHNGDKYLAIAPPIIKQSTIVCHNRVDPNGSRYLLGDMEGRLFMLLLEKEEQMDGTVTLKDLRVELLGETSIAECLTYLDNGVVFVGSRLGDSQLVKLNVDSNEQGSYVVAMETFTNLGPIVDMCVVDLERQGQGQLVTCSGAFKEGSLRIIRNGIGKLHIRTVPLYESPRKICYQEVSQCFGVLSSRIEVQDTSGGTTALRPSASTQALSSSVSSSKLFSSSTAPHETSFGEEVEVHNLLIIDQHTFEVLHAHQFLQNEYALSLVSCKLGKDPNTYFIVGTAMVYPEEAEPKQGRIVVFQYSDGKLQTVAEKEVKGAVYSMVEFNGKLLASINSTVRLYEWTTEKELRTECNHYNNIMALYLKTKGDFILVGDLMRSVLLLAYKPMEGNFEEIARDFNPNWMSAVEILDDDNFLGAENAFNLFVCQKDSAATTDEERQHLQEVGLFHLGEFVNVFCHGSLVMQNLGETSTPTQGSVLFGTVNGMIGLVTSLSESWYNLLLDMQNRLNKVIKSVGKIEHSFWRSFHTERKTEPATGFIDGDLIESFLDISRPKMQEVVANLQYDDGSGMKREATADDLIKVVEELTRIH

Turning to `Cc1ccc(NS(=O)(=O)c2cnn(CC(F)F)c2)c2[nH]cc(C#N)c12` [Compound 66, N-(3-cyano-4-methyl-1H-indol-7-yl)-1-(2,2-difluoroethyl)pyrazole-4-sulfonamide], the IC50 – broadly, the concentration needed to halve the response being measured – in assay [1] was under 0.25 µM. In addition, in assay [2], the EC50 (in general, the midpoint of the concentration-response curve) was under 0.25 µM.
Turning to `Cc1ccc(NS(=O)(=O)c2cnn(CCS(C)(=O)=O)c2)c2[nH]cc(C#N)c12` [Compound 67, N-(3-cyano-4-methyl-1H-indol-7-yl)-1-(2-methylsulfonylethyl)pyrazole-4-sulfonamide], the IC50 in assay [1] was under 0.25 µM. Further, the half-maximal effective concentration (EC50) in assay [2] was in the range of 0.25 to 1 µM.
For `CCn1cc(S(=O)(=O)Nc2ccc(C)c3c(C#N)c[nH]c23)cn1` [Compound 68, N-(3-cyano-4-methyl-1H-indol-7-yl)-1-ethyl-pyrazole-4-sulfonamide], in that order: under 0.25 µM and under 0.25 µM.
For `Cc1ccc(NS(=O)(=O)c2cnn(CC3CC3)c2)c2[nH]cc(C#N)c12` [Compound 69, N-(3-cyano-4-methyl-1H-indol-7-yl)-1-(cyclopropylmethyl)pyrazole-4-sulfonamide], in that order: under 0.25 µM and under 0.25 µM.
With `Cc1ccc(NS(=O)(=O)c2cnn(CF)c2)c2[nH]cc(C#N)c12` [Compound 70, N-(3-cyano-4-methyl-1H-indol-7-yl)-1-(fluoromethyl)pyrazole-4-sulfonamide], the IC50 in assay [1] was under 0.25 µM. Moreover, in assay [2], the concentration for a half-maximal effect (EC50) was under 0.25 µM.
Consider `Cc1ccc(NS(=O)(=O)c2cnn(CC3(C)COC3)c2)c2[nH]cc(C#N)c12` [Compound 71, N-(3-cyano-4-methyl-1H-indol-7-yl)-1-[(3-methyloxetan-3-yl)methyl]pyrazole-4-sulfonamide], for which the IC50 in assay [1] was under 0.25 µM. Besides, in assay [2], the EC50 lay within 0.25 to 1 µM.
Take `Cc1ccc(NS(=O)(=O)c2cnn(CC3(F)COC3)c2)c2[nH]cc(C#N)c12` [Compound 72, N-(3-cyano-4-methyl-1H-indol-7-yl)-1-[(3-fluorooxetan-3-yl)methyl]pyrazole-4-sulfonamide]: the IC50 in assay [1] is under 0.25 µM. Moreover, the EC50 in assay [2] is 0.25 to 1 µM.
Turning to `Cc1ccc(NS(=O)(=O)c2cnn(CCCF)c2)c2[nH]cc(C#N)c12` [Compound 73, N-(3-cyano-4-methyl-1H-indol-7-yl)-1-(3-fluoropropyl)pyrazole-4-sulfonamide], the IC50 in assay [1] is under 0.25 µM. Besides, the EC50 in assay [2] was under 0.25 µM.
Take `Cc1ccc(NS(=O)(=O)c2cnn(C)c2)c2[nH]ccc12` [Compound 74, 1-methyl-N-(4-methyl-1H-indol-7-yl)pyrazole-4-sulfonamide]: in assay [1], the IC50 is over 1 µM. In assay [2], the half-maximal effective concentration (EC50) is over 1 µM.
As to `Cc1ccc(NS(=O)(=O)c2cnn(C)c2)c2[nH]cc(Cl)c12` [Compound 75, N-(3-chloro-4-methyl-1H-indol-7-yl)-1-methyl-pyrazole-4-sulfonamide], in assay [1], the IC50 was under 0.25 µM. Further, in assay [2], the EC50 is under 0.25 µM.
Regarding `Cc1ccc(NS(=O)(=O)c2cnn(CC(C)(C)C#N)c2)c2[nH]cc(C#N)c12` [Compound 76, N-(3-cyano-4-methyl-1H-indol-7-yl)-1-(2-cyano-2-methyl-propyl)pyrazole-4-sulfonamide], in assay [1], the IC50 is under 0.25 µM. Also, in assay [2], the EC50 was in the range of 0.25 to 1 µM.
For `Cc1ccc(NS(=O)(=O)c2cnn(CCC#N)c2)c2[nH]cc(C#N)c12` [Compound 77, 1-(2-Cyanoethyl)-N-(3-cyano-4-methyl-1H-indol-7-yl)pyrazole-4-sulfonamide], in that order: under 0.25 µM and under 0.25 µM.
For `Cc1ccc(NS(=O)(=O)c2cnn(CC3CCC3)c2)c2[nH]cc(C#N)c12` [Compound 78, N-(3-cyano-4-methyl-1H-indol-7-yl)-1-(cyclobutylmethyl)pyrazole-4-sulfonamide], in that order: under 0.25 µM and 0.25 to 1 µM.
In the case of `Cc1ccc(NS(=O)(=O)c2cnn(CC3CC3(F)F)c2)c2[nH]cc(C#N)c12` (stereo not drawn) [Compound 79, N-(3-cyano-4-methyl-1H-indol-7-yl)-1-[(2,2-difluorocyclopropyl)methyl]pyrazole-4-sulfonamide], the IC50 in assay [1] was under 0.25 µM. The EC50 in assay [2] lay in the range of 0.25 to 1 µM.
The matching figures for `C=C(CF)n1cc(S(=O)(=O)Nc2ccc(C)c3c(C#N)c[nH]c23)cn1` [Compound 80, N-(3-cyano-4-methyl-1H-indol-7-yl)-1-[1-(fluoromethyl)vinyl]pyrazole-4-sulfonamide]: under 0.25 µM and under 0.25 µM.
For `Cn1cc(S(=O)(=O)Nc2ccc(Cl)c3c(Cl)c[nH]c23)cn1` [Compound 81, N-(3,4-dichloro-1H-indol-7-yl)-1-methyl-pyrazole-4-sulfonamide], in that order: under 0.25 µM and under 0.25 µM.
For the molecule `Cn1cc(S(=O)(=O)Nc2ccc(Cl)c3c(C#N)c[nH]c23)cn1` [Compound 82, N-(4-chloro-3-cyano-1H-indol-7-yl)-1-methyl-pyrazole-4-sulfonamide], the IC50 in assay [1] is under 0.25 µM. The EC50 in assay [2] is under 0.25 µM.
Turning to `O=S(=O)(Nc1cccc2c(Cl)c[nH]c12)c1cnn(C2CC(O)C2)c1` (stereo not drawn) [Compound 83, N-(3-chloro-1H-indol-7-yl)-1-(3-hydroxycyclobutyl)pyrazole-4-sulfonamide], in assay [1], the IC50 was under 0.25 µM. Besides, the EC50 in assay [2] lay in the range of 0.25 to 1 µM.
In the case of `Cc1ccc(NS(=O)(=O)c2cnn(CC(C)(C)S(C)(=O)=O)c2)c2[nH]cc(C#N)c12` [Compound 84, N-(3-cyano-4-methyl-1H-indol-7-yl)-1-(2-methyl-2-methylsulfonyl-propyl)pyrazole-4-sulfonamide], the IC50 in assay [1] is under 0.25 µM. In addition, the EC50 in assay [2] was over 1 µM.
As for `Cc1ccc(NS(=O)(=O)c2cnn(C3CC4(COC4)C3)c2)c2[nH]cc(C#N)c12` [Compound 85, N-(3-cyano-4-methyl-1H-indol-7-yl)-1-(2-oxaspiro[3.3]heptan-6-yl)pyrazole-4-sulfonamide], in assay [1], the IC50 is under 0.25 µM. Moreover, the EC50 in assay [2] lay in the range of 0.25 to 1 µM.
For `Cc1ccc(NS(=O)(=O)c2cnn(C3CCC(F)(F)CC3)c2)c2[nH]cc(C#N)c12` [Compound 86, N-(3-cyano-4-methyl-1H-indol-7-yl)-1-(4,4-difluorocyclohexyl)pyrazole-4-sulfonamide], in that order: under 0.25 µM and 0.25 to 1 µM.
For `Cc1ccc(NS(=O)(=O)c2cnn(C3CCN(CC(F)(F)F)CC3)c2)c2[nH]cc(C#N)c12` [Compound 87, N-(3-cyano-4-methyl-1H-indol-7-yl)-1-[1-(2,2,2-trifluoroethyl)-4-piperidyl]pyrazole-4-sulfonamide], in that order: under 0.25 µM and over 1 µM.
Regarding `Cc1ccc(NS(=O)(=O)c2cnn(C3CCCC3)c2)c2[nH]cc(C#N)c12` [Compound 88, N-(3-cyano-4-methyl-1H-indol-7-yl)-1-cyclopentyl-pyrazole-4-sulfonamide], the IC50 in assay [1] was under 0.25 µM. For the same molecule, the EC50 in assay [2] is 0.25 to 1 µM.
The matching figures for `Cc1ccc(NS(=O)(=O)c2cnn(Cc3ccccc3)c2)c2[nH]cc(C#N)c12` [Compound 89, 1-benzyl-N-(3-cyano-4-methyl-1H-indol-7-yl)pyrazole-4-sulfonamide]: under 0.25 µM and 0.25 to 1 µM.
On to `CCCn1cc(S(=O)(=O)Nc2ccc(C)c3c(C#N)c[nH]c23)cn1` [Compound 90, N-(3-cyano-4-methyl-1H-indol-7-yl)-1-propyl-pyrazole-4-sulfonamide], for which the IC50 in assay [1] was under 0.25 µM. Moreover, the EC50 in assay [2] is under 0.25 µM.
In the case of `N#Cc1c[nH]c2c(NS(=O)(=O)c3cnn(CC(F)F)c3)ccc(Cl)c12` [Compound 91, N-(4-chloro-3-cyano-1H-indol-7-yl)-1-(2,2-difluoroethyl)pyrazole-4-sulfonamide], in assay [1], the half-maximal inhibitory concentration (IC50) was under 0.25 µM. The EC50 in assay [2] lay in the range of 0.25 to 1 µM.
For `N#Cc1c[nH]c2c(NS(=O)(=O)c3cnn(CC(F)F)c3)ccc(F)c12` [Compound 92, N-(3-cyano-4-fluoro-1H-indol-7-yl)-1-(2,2-difluoroethyl)pyrazole-4-sulfonamide], in that order: under 0.25 µM and 0.25 to 1 µM.
The matching figures for `Cc1ccc(NS(=O)(=O)c2cnn(S(C)(=O)=O)c2)c2[nH]cc(C#N)c12` [Compound 93, N-(3-cyano-4-methyl-1H-indol-7-yl)-1-methylsulfonyl-pyrazole-4-sulfonamide]: under 0.25 µM and 0.25 to 1 µM.
On to `Cc1ccc(NS(=O)(=O)c2cnn(C(C)(C)C)c2)c2[nH]cc(C#N)c12` [Compound 94, 1-tert-butyl-N-(3-cyano-4-methyl-1H-indol-7-yl)pyrazole-4-sulfonamide], for which, in assay [1], the IC50 was under 0.25 µM. Also, the EC50 in assay [2] was under 0.25 µM.
As to `CC(C)(C)n1cc(S(=O)(=O)Nc2cccc3c(Cl)c[nH]c23)cn1` [Compound 95, 1-tert-butyl-N-(3-chloro-1H-indol-7-yl)pyrazole-4-sulfonamide], in assay [1], the IC50 is under 0.25 µM. For the same molecule, the EC50 in assay [2] was 0.25 to 1 µM.
